“And” between values parts separate entries of the source, which are not always exact repeats. Equal values may be shown once. Read-outs that look alike come from different tables or passages of the source. No end group written: not given here.
Columns and labels:
CaSte2 = CaSte2 (yTC384), no protease; Hill function best-fit ± standard error
[1] = system: CaSte2 with protease CaBar1
[2] = system: CaSte2 with protease CaBar1; settings: for Hill Slope: CaSte2 + CaBar1 (yBB02), Hill function best-fit ± standard error; for cleavage by CaBar1 protease: judged from CaSte2 activation with/without CaBar1
[3] = Cyclic voltammetry of peptides and copper-peptide complexes; assay type: physicochemical; settings: for potential peaks in cyclic voltammogram: 500 μM peptide in 10 mM KCl, scan rates 0.2, 0.1, 0.05 V/s; for redox potential peak of the Cu2+ complex: 1 mM tripeptide, 1 mM CuCl2, 50 mM Tris/HCl (pH 7.4), 0.1 M NaClO4, glassy carbon, 0.3 V/s
[4] = biological target: T1, Botrytis cinerea cognate pheromone receptor (BcSte2) (Botrytis cinerea); test: cell-based or functional assay
T1 sequence: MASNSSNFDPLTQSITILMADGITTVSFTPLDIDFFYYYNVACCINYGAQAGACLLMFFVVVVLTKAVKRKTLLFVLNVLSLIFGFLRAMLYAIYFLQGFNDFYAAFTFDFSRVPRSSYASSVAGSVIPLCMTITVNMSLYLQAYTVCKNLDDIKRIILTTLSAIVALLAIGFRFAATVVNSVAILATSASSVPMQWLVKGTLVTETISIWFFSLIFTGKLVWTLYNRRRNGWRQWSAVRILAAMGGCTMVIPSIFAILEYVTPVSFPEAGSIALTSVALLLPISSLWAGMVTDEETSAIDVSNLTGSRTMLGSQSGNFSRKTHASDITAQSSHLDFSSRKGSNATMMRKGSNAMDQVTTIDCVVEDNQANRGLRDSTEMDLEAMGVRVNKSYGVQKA

[5] = biological target: T2, Candida albicans pheromone GPCR CaSte2 (Candida albicans); test: cell-based or functional assay
T2 sequence: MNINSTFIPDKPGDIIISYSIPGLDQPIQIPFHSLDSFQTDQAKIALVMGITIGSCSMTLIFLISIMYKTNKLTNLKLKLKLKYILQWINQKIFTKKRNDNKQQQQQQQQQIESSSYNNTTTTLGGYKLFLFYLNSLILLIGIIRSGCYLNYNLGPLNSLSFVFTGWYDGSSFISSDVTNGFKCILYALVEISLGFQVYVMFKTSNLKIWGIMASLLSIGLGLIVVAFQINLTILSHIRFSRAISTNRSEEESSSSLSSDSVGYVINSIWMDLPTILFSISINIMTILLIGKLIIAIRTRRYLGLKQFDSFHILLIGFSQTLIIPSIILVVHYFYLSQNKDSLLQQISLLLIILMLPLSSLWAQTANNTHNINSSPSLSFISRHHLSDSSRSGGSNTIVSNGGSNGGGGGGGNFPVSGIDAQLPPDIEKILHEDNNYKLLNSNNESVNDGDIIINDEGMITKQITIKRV

[6] = biological target: T2, Candida albicans pheromone GPCR CaSte2 (Candida albicans); test: cell-based or functional assay; set-up: EC50 compared to the native CaPep (orders of magnitude): unit not given beside the values
[7] = biological target: C. albicans pheromone peptide (CaPep) (Candida albicans); test: cell-based or functional assay
[8] = biological target: T3, Candida parapsilosis pheromone GPCR CpSte2 (native) (Candida parapsilosis); test: cell-based or functional assay
T3 sequence: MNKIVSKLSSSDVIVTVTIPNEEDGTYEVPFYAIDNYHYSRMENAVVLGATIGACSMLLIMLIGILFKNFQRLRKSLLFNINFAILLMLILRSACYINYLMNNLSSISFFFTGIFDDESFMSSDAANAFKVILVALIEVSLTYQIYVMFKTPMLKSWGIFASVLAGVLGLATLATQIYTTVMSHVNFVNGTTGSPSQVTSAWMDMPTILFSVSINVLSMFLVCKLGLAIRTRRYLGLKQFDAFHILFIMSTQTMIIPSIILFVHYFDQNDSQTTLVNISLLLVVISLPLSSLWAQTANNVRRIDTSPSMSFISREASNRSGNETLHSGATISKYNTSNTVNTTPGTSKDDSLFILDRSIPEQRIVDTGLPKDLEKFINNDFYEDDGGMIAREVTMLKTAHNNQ

[9] = system: CaSte2 with protease CaBar1; settings: read-out: "EC50" of the first response phase; biphasic dose-response, phase treated as separate Hill fit
[10] = Metal-binding peptide absorbance scan; assay type: physicochemical
CpSte2 = assay type: cell-based, Candida parapsilosis
[11] = biological target: S. cerevisiae pheromone peptide (ScPep) (Saccharomyces cerevisiae); test: cell-based or functional assay
[12] = biological target: S. japonicus pheromone peptide (SjPep) (Schizosaccharomyces japonicus); test: cell-based or functional assay
[13] = biological target: SpSte2 with peptide proteases (Schizosaccharomyces pombe, UniProt Q00619); test: SpSte2 biosensor dose-response with complementary and non-complementary proteases; assay type: cell-based
[14] = system: SoSte2 with peptide proteases; assay type: cell-based, Schizosaccharomyces octosporus
A. clavatus GPCR = assay type: cell-based; settings: 40 μM peptide
Experimental: (§1) FIGS. 6A-6B show Aspergillus spp peptide cross-reactivity with Aspergillus spp GPCRs. […] The test concentration was set at 40 μM of a given peptide ligand.
(§2) Next, 13 GPCRs of all genome-mined Aspergillus species, including A. fumigatus from Example 1 and S. cerevisiae, along with inducible fluorescent readout were integrated into optimized parent strain. S. cerevisiae was included to test cross-reactivity with S. cerevisiae GPCR and peptide, since this peptide/GPCR pair will be used for building multi-cellular amplification communities. Then, each strain was activated with all Aspergillus peptides and S. cerevisiae peptide (FIG. 6A). Most of the Aspergillus GPCRs were responsive to at least one peptide, except A. terreus, A. flavus/A. oryzae (same GPCR sequence), A. niger and A. nidulans which were not responsive to any tested peptide. […] The majority of peptides have the same sequence (A. fischeri, A. fumigatus, A. lentulus, A. novofumigatus, A. udagawae and A. viridinutans) and the other active peptides differ only in the third amino acid position from N-terminus (A. clavatus, A. flavus and A. oryzae).

[15] = system: Aspergillus spp and S. cerevisiae GPCRs; assay type: cell-based; settings: 40 μM peptide
Experimental: as §1, §2

[16] = biological target: T4, Candida albicans pheromone GPCR CaSte2 (Candida albicans); test: cell-based or functional assay
T4 chain: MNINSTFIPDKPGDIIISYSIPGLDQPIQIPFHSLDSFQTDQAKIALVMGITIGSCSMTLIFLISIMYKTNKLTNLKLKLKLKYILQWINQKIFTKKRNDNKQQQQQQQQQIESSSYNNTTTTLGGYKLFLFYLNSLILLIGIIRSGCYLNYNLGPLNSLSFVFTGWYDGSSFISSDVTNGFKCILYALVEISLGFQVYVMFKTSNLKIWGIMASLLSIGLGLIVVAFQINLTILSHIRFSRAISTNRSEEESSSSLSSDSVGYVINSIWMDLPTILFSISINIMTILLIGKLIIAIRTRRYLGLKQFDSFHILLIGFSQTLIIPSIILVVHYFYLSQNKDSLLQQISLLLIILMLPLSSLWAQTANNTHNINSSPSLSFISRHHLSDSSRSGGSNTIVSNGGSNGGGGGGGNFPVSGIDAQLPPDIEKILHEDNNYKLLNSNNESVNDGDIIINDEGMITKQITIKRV

[17] = 1 mM copper, 1 mM peptide, 50 mM Tris/HCl, NaClO4 buffer

SpSte2 with peptide proteases, sequence (Q00619 whole entry): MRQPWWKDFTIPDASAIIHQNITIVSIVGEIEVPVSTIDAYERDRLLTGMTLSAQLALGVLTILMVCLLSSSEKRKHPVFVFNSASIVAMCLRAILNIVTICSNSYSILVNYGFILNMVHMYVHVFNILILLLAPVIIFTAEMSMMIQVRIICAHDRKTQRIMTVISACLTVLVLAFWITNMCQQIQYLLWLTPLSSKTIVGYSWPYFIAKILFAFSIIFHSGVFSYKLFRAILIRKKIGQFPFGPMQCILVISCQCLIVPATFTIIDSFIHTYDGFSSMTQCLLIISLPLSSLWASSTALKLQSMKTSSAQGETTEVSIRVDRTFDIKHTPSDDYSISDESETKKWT

CC(C)C[C@H](NC(=O)[C@H](CCCNC(=N)N)NC(=O)[C@H](Cc1ccccc1)NC(=O)CN)C(=O)N[C@H](C(=O)N[C@@H](CC(N)=O)C(=O)N[C@@H](Cc1ccccc1)C(=O)NCC(=O)N[C@@H](Cc1ccc(O)cc1)C(=O)N[C@@H](Cc1ccccc1)C(=O)N[C@@H](CCC(=O)O)C(=O)N1CCC[C@H]1C(=O)N[C@@H](C)C(=O)O)[C@@H](C)O [CaPep13A]
Hill Slope (CaSte2): 0.81 ± 0.04
EC50 ([1]; +CaBar1 strain, lycopene, 1-h preincubation before adding peptides, 8-h incubation): 1000 nM
effect of CaBar1 on color onset, lycopene readout ([1]; liquid culture, same peptide concentrations, 1-h preincubation, 8-h incubation (FIG. 37)): diminishes color onset
Hill Slope [2]: 0.94 ± 0.06
cleavage by CaBar1 protease [2]: cleavable
cleavage by CaBar1 protease ([2]; listed as GFRLTNFGYFEPA): specifically cleaved

AfPep: natural fungal peptide containing two cysteine residues (WCHLPGQGC; Synthetic: AfPep)
potential peaks in cyclic voltammogram [3]: None of the tested peptides showed any unique and distinguishable potential peaks

BcPep with its first cysteine changed into serine (peptide)
maximal activation compared to the original BcPep [4]: 4 fold

BcPep with its second cysteine changed into serine (peptide)
maximal activation compared to the original BcPep [4]: 4 fold

CaPep9A10A (peptide)
LogEC50 [5]: -4.7 log M and -4.6 log M
Top [5]: 570 A.U. and 510 A.U.
EC50 compared to the native CaPep (orders of magnitude) [6]: 2

CaPep10A (peptide)
LogEC50 [5]: -4.6 log M and -4.2 log M
Top [5]: 180 A.U. and 98 A.U.
EC50 compared to the native CaPep (orders of magnitude) [6]: 2

CaPep11A (peptide)
Top [5]: 180 A.U. and 120 A.U.
decrease in maximal activation compared to the native CaPep [6]: 50%

CaPep12A13A (peptide)
LogEC50 [5]: -4.8 log M and -4.5 log M
Top [5]: 170 A.U.
EC50 compared to the native CaPep (orders of magnitude) [6]: 2

CaPep12A (peptide)
LogEC50 [5]: -5.3 log M and -5 log M
Top [5]: 580 A.U. and 540 A.U.
EC50 compared to the native CaPep (orders of magnitude) [6]: 2

Candida albicans Bar1 aspartyl protease (CaBar1) (enzyme)
shift of apparent EC50 on the cognate GPCR with the protease co-expressed (order of magnitude) [7]: 1

Candida parapsilosis cognate peptide (CpPep)
EC50, mCherry, yMJ194 [8]: 3 nM
EC50, mCherry, yTC453 [8]: 9 nM
maximal activation, mCherry, yMJ194 [8]: 250 A.U.
maximal activation, mCherry, yTC453 [8]: 3300 A.U.

GARLTNFGYFEPA [CaPep2A13A]
Hill Slope (CaSte2): 1.2 ± 0.1
EC50 [9]: ~0.3 nM
Hill Slope [2]: 0.86 ± 0.10
EC50 ([2]; biosensor with protease CaBar1 under intermediate pRPL18B promoter, 10-h incubation): ~70 nM
cleavage by CaBar1 protease [2]: non-cleavable

GHK
absorbance maxima of copper complexes [10, 17]: 620 nm
absorbance peaks of nickel complexes ([10]; nickel complexes): did not show absorbance peaks

GWIGRCGVPGSSC [BcomPep, Baudoinia compniacensis mating peptide]
potential peaks in cyclic voltammogram [3]: None of the tested peptides showed any unique and distinguishable potential peaks

His-Ala-His
redox potential peak of the Cu2+ complex [3]: 1.1 V

His-His-Trp
redox potential peak of the Cu2+ complex [3]: 0.8 V
absorbance maxima of copper complexes [10, 17]: 620 nm
absorbance peaks of nickel complexes ([10]; nickel complexes): did not show absorbance peaks

KKH
absorbance maxima of copper complexes [10, 17]: 620 nm

KPHWTTYGYYEPQ [CpPep]
basal expression (CpSte2; optimized strain yTC453): ~0 A.U.
EC50 (CpSte2; yMJ194, natural pathway): ~3 nM
maximal activation (CpSte2; yMJ194, natural pathway): ~250 A.U.
EC50 (CpSte2; yTC453, optimized): ~9 nM
maximal activation (CpSte2; yTC453, optimized): ~3,300 A.U.

PHGGGWGQ
absorbance maxima of copper complexes [10]: 620 nm
absorbance peaks of nickel complexes [10]: did not show absorbance peaks

SDS
concentration that does not impact the vitality and function of the live yeast biosensor (live yeast biosensor): up to 0.01%

Saccharomyces cerevisiae Bar1 aspartyl protease (ScBar1) (from UniProt P12630 25-587) (enzyme)
shift of apparent EC50 on the cognate GPCR with the protease co-expressed (order of magnitude) [11]: 1

Schizosaccharomyces japonicus serine carboxypeptidase Sxa2 (SjSxa2) (enzyme)
shift of apparent EC50 on the cognate GPCR with the protease co-expressed (order of magnitude) [12]: 1

TYADFLRAYQSWNTFVNPDRPNL [SpPep]
EC50 [13]: > 100000 nM
cleavage by ScBar1 and CaBar1 ([13]; ScBar1, CaBar1): did not cleave
shift of apparent EC50 by non-complementary proteases ([13]; SjSxa2 and SoSxa2): between half and one order of magnitude
response with complementary protease ([13]; SpSxa2, within measured concentration range): practically completely attenuated the response

TYEDFLRVYKNWWSFQNPDRPDL [SoPep]
cleavage by ScBar1 and CaBar1 [14]: did not cleave
shift of apparent EC50 by non-complementary proteases [14]: between half and one order of magnitude
shift of apparent EC50 towards higher concentration by complementary protease [14]: one and a half orders of magnitude

Tween20
concentration that does not impact the vitality and function of the live yeast biosensor (live yeast biosensor): up to 0.05%

WCALPGQGC [A. oryzae peptide]
response of A. clavatus GPCR (A. clavatus GPCR): strongest response

WCELPGQGC [A. clavatus peptide]
response of A. clavatus GPCR (A. clavatus GPCR): strongest response

WCRFAGRIC (SEQ ID NO: 1) or WCRFRGQVC [A. nidulans peptide]
activation of tested GPCRs [15]: did not activate any tested GPCR

WCVLPGQPC [A. niger peptide]
activation of tested GPCRs [15]: did not activate any tested GPCR

GFRLTNFGYFEPA (modifications not checked) [CaPep13A]
EC50, lycopene readout, strains preincubated, +CaBar1 [16]: 1000 nM
EC50, lycopene readout, strains preincubated, -CaBar1 [16]: 80 nM
Top [16]: 820 A.U. and 590 A.U.

GARLTNFGYFEPG (modifications not checked) [CaPep2A]
EC50, ymTurquoise2, strain with the protease CaBar1 [16]: 40 nM
EC50, ymTurquoise2, strain without the protease [16]: 50 nM
LogEC50 [16]: -7.4 log M and -6.9 log M
Top [16]: 460 A.U. and 430 A.U.

Source: patent US20240368664A1, “LIVE YEAST BIOSENSORS AND METHODS OF USE THEREOF” (priority 2021, published 2024)
